≈ marks a conversion by molar mass, not a printed value. Peptide text beside a SMILES is read from it.
Columns and labels:
[1] = tested on: E. coli B2 persisters; experiment: Bactericidal activity against persisters; type: cell-based, Escherichia coli
Procedure: Briefly, the bacteria suspensions after washing were exposed to 50-fold MIC concentrations of vancomycin and tigecycline, respectively, and co-incubation for 4 h to obtain persister cells. […] Subsequently, the primary CFUs/mL were calculated.

[2] = tested on: S. enteritidis ATCC 13076; experiment: microbe, parasite or virus in culture; type: cell-based; details: ATCC 13076
In short: (§1)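 Broth microdilution per CLSI 2021 guidelines. Exponential-phase bacteria were diluted 1:1000 into MHB, and 1.5 × 10^6 CFUs/mL suspension was mixed with serially varied peptide concentrations to determine MIC.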

[3] = tested on: E. faecalis 1F-1; experiment: microbe, parasite or virus in culture; type: cell-based; details: 1F-1
In short: as §1

[4] = tested on: E. faecalis A4 (VRE, VanA); experiment: microbe, parasite or virus in culture; type: cell-based; details: A4 (VRE, VanA)
In short: as §1

[5] = tested on: CD-1 mice; type: in vivo; details: 10 mg/kg i.p. daily for 6 days, n = 4
Procedure: LI14 (10 mg/kg, body weight) was intra-peritoneally injected into CD-1 mice (n = 4 biologically independent animals per group) every day for 6 days[64]. Mice were weighed daily and the behaviors of the mice were inspected for one week. Blood from mice was collected on the seventh day for whole-blood cell analysis and kidney chemistry profile. At the same time, the heart, liver, spleen, lung, and kidney of mice were collected for H.E. staining.
Supplementary Fig. 5 In vivo toxicity assessment of LI14 peptide.
(a) Scheme of the LI14 peptide toxicity study in mice. CD-1 female mice (n = 4 biologically independent animals per group) were intraperitoneally administered with LI14 (10 mg/kg) daily […]. (b-e) Body weight (b), whole-blood cell profiles (c), serum biochemical […]
(1 picture or pasted object on this page, not shown here)

[6] = tested on: E. coli CP131 (mcr-3); experiment: microbe, parasite or virus in culture; type: cell-based, Escherichia coli; details: CP131 (mcr-3)
In short: as §1

[7] = tested on: E. coli G6 (blaNDM-5); experiment: microbe, parasite or virus in culture; type: cell-based, Escherichia coli; details: G6 (blaNDM-5)
In short: as §1

[8] = tested on: E. coli G92 (mcr-1); experiment: microbe, parasite or virus in culture; type: cell-based, Escherichia coli; details: G92 (mcr-1)
In short: as §1

[9] = tested on: E. coli B3-1 (tet(X4)); experiment: microbe, parasite or virus in culture; type: cell-based, Escherichia coli; details: B3-1 (tet(X4))
In short: as §1

[10] = tested on: E. coli C3 (blaNDM-1); experiment: microbe, parasite or virus in culture; type: cell-based, Escherichia coli; details: C3 (blaNDM-1)
In short: as §1

[11] = tested on: E. coli 1F28 (tet(X4)); experiment: microbe, parasite or virus in culture; type: cell-based, Escherichia coli; details: 1F28 (tet(X4))
In short: as §1

[12] = tested on: S. aureus ATCC 29213; experiment: Resistance development study, serial passages; type: cell-based, Staphylococcus aureus; details: 80 serial passages at sub-inhibitory concentration (0.5-fold MIC)
Procedure: The ability of LI14 peptide to induce resistance was studied as previously described. Resistance to the therapeutically important drugs rifampicin and ciprofloxacin was measured using S. aureus ATCC 29213 and E. coli ATCC 25922 as test strains. The middle and final MICs were monitored after eighty such serial passages exposed to the tested medicines (0.5-fold MIC), and the fold change in MIC increase was recorded.

[13] = tested on: MRSA T144 or E. coli B2; experiment: Rat skin wound infection model; type: in vivo, rats; details: MRSA T144 or E. coli B2 infected skin wound; LI14 5 or 10 μg topically; 8 days; n = 4
Procedure: The rats (n = 4 biologically independent animals per group) were anesthetized and a 2 cm wound model was constructed on their back. Then, 100 μL of MRSA T144 or E. coli B2 cultures were dropped on the wounds (10^6 CFUs per mouse), respectively. At 1 h post-infection, 100 μL of LI14 peptide (5 or 10 μg), or the combination of LI14 peptide with ampicillin/rifampicin (5 + 5 μg) were gently inoculated over the scar with a pipette tip, respectively. Wound size was recorded for 8 days, and on the 8th day, the rats were euthanized, and wound tissue was removed aseptically to measure CFUs and for following hematoxylin and eosin (H&E) staining.
(a-d) Mouse skin wound infection models by MRSA T144 (n = 4 biologically independent animals per group). a Photographs of wounds treated with LI14 (5 μg and 10 μg) or in combination with ampicillin (5 + 5 μg) for 0, 4 and 8 days (scale bar, 1 cm). (b) The wound size at 0th, 4th and 8th day after infection by MRSA T144. (c) The subeschar bacterial colonies at 8th day. (d) H.E. staining for the histological change of skin wound at 8th day (scale bar, […]
(e-h) Mouse skin wound infection models by E. coli B2 (n = 4 biologically independent animals per group). (e) Photographs of wounds treated with LI14 (5 μg and 10 μg) or in combination with rifampicin for (5 + 5 μg) for 0, 4 and 8 days (scale bar, 1 cm). […]

With CC[C@H](C)[C@H](NC(=O)[C@H](CCCNC(=N)N)NC(=O)[C@H](CS)NC(=O)[C@H](CC(C)C)NC(=O)[C@H](CCCCN)NC(=O)[C@H](CCCCN)NC(=O)[C@H](CC(C)C)NC(=O)[C@@H](NC(=O)[C@H](CCCNC(=N)N)NC(=O)[C@H](CS)NC(=O)[C@H](CC(C)C)NC(=O)[C@H](CCCCN)NC(=O)[C@H](CCCCN)NC(=O)[C@@H](N)CC(C)C)[C@@H](C)CC)C(N)=O [LI14] (H-LKKLCRILKKLCRI-NH2) the “Removal rate of persisters” value ([1]; 128 μg/mL of LI14) was “more than 99%”, the “Clearance rate against persisters” value ([1]; within 2 h) was “above 99%” and the MIC [2] was 8 µg/mL (≈ 4.63 µM). The MIC [3] was 64 µg/mL (≈ 37.1 µM), the MIC [4] was 8 µg/mL (≈ 4.63 µM) and the “Behavior and body weight” value [5] was “did not observe murine behavior changes or body weight loss”. The “H.E. staining of heart, liver, spleen, lung, kidney” value [5] was “no significant difference in histological morphology”, the “Whole-blood cell profiles and serum biochemical index” value [5] was “no significant difference compared with the control group” and the MIC [6] was 4 µg/mL (≈ 2.32 µM). For the same compound, the MIC [7] was 4 µg/mL (≈ 2.32 µM), the MIC [8] was 8 µg/mL (≈ 4.63 µM) and the MIC [9] was 8 µg/mL (≈ 4.63 µM). The MIC [10] was 4 µg/mL (≈ 2.32 µM), the MIC [11] was 8 µg/mL (≈ 4.63 µM) and the “Increase in MIC after serial passages” value [12] was 8 fold. For the same compound, the “Wound closure and number of colonies” value [13] was “distinctly improved wound closure and decreased the number of colonies”.
